Test results reported in patent US10933075B2, “Materials and methods for suppressing and/or treating bacterial infections and related symptoms” (Indiana University Research and Technology Corporation, priority 2017, dated 2021).

What was measured:
[1] = test system: S. aureus USA300; assay: Murine model of peritoneal infection (survival, anti-virulence effect); assay type: in vivo, mice; settings: for anti-virulence effect: mice i.p. infected with S. aureus USA300, 50 μg i.p. once every day for 7 days, from one hour post infection; for in vivo efficacy, dose dependence: administered after infection for 7 days (FIG. 7); for anti-virulence activity against S. aureus infection in mice (percent survival): S. aureus 2×10^8 CFU i.p., n=10-18 (FIGS. 4-6); for anti-virulence effect, confirmation by repeating the mouse experiment: repeat of the mouse experiment
Protocol: FIG. 4. Effect of Streptozotocin on survival. […] Open circles represent percent survival of treated mice (i.e., steptozotocin) after the indicated period. Closed circles represent percent survival of untreated mice (i.e., control). S. aureus (2×10^8 CFU) were i.p. injected into mice (n=10-18).
In this model, mice were i.p. infected with S. aureus USA300. One hour post infection, the test compounds were administered via i.p. injection once every day for 7 days.
To determine the minimal dosage of the compounds for their protective effect, a different amount of the compounds (0-100 μg) were administered after S. aureus infection for 7 days as described above.
The biological half-life of streptozotocin is about 35-40 min. […] Although we administered the compounds every day for 7 days, due to their short half-lives, it is likely that S. aureus cells were exposed to the compounds only briefly. […] To examine the hypothesis, after 2 h post infection with S. aureus, we administered the compounds only once (25 μg for streptozotocin and floxuridine; 50 μg for doxorubicin) and watched the infected mice for 7 days.

[2] = test system: SaeRS two component system (P1 promoter); assay: pYJ-P1-GFP reporter, Sae activity (P1 promoter activity); assay type: cell-based, S. aureus strain USA300; settings: grown in TSB for 3 h, various concentrations (FIG. 3B)
Protocol: FIG. 3B. Graph illustrating the effect of three compounds on Sae activity of Staphylococcus aureus. Cells were grown in TSB for 3 hours in the presence of the compounds (e.g., Streptozotocin, Floxuridine, and Doxorubicin) using various concentrations as indicated. The P1 promoter has two SaeR binding sites and its activity is an excellent indicator for the Sae activity.
The sae operon consists of four genes (saeP, saeQ, saeR, and saeS), and the two promoters P1 and P3. The P1 promoter resides in the front of the very first gene saeP and can transcribe all four genes. The P1 promoter has two SaeR binding sequences (SBSs). The P1 promoter in front of the sae operon is well characterized target of the SaeRS two component system. Here, the reporter plasmid pYJ-P1-GFP was used in the library screening and the expression level of GFP was interpreted as the Sae activity.
(§1) In the library screening, S. aureus strain USA300 was grown with pYJ-P1-GFP in the presence of 10 μM test compound for 3 hours. Then the effects of the each drug on growth and GFP expression were measured. In the primary screening, about 9,000 test compounds (3,000 FDA-approved drugs, 6,000 DCL library compounds) were tested.
(§2) Referring now to FIGS. 3A and 3B, the effects of the three compounds on growth (A) and Sae activity (B) of Staphylococcus aureus were measured. The cells were grown in TSB for 3 h in the presence of the compounds with various concentrations as indicated.

[3] = test system: Staphylococcus aureus; assay: Effect on growth of Staphylococcus aureus; assay type: cell-based; settings: grown in TSB for 3 h, various concentrations (FIG. 3A)
Protocol: FIG. 3A. Graph illustrating the effect of three compounds on growth of Staphylococcus aureus. Cells were grown in TSB for 3 hours in the presence of the compounds (e.g., Streptozotocin, Floxuridine, and Doxorubicin) using various concentrations as indicated.
as §1, §2

[4] = test system: Agr quorum sensing system, Arl two-component system, SarA DNA binding protein; assay: qRT-PCR of agrC, arlS, sarA transcription normalized by gyrB; assay type: cell-based, S. aureus USA300; settings: 1 μg/mL (=3.8 μM for streptozotocin, 4 μM for floxuridine), 3 h (FIG. 9)
Protocol: FIG. 9. Streptozotocin (SZ) and floxuridine (FU) repress other signalling systems critical for staphylococcal virulence. The transcription level of the indicated genes was analyzed by qRT-PCR and normalized by the transcription level of gyrB. agrC, the gene of the sensor kinase of the Agr quorum sensing system; arlS, the gene of the sensor kinase of the Arl two componenet system; sarA, the gene of the DNA binding protein SarA; NT, no treatment.
The virulence of S. aureus is thought to be controlled by multiple signaling systems. Along with the Sae signaling system, the Agr quorum sensing system, Arl two-component system, and SarA DNA binding protein are known to contribute to staphylococcal virulence. To explain the high in vivo efficacy of streptozotocin and floxuridine, S. aureus USA300 was treated with 1 μg/mL (=3.8 μM for streptozotocin, 4 μM for floxuridine) for 3 h, purified total RNA and carried out qRT-PCR.

[5] = in vivo; cited from earlier work

| SMILES | anti-virulence effect [1] | Sae activity (P1 promoter activity) [2] | growth of Staphylococcus aureus [3] | anti-virulence activity against S. aureus infection in mice (percent survival) [1] | anti-virulence effect, confirmation by repeating the mouse experiment [1] | transcription level of agrC, arlS, sarA (signaling systems critical for virulence) [4] | further results |
| --- | --- | --- | --- | --- | --- | --- | --- |
| CC(=O)[C@H]1CC[C@H]2[C@@H]3CC=C4C[C@@H](OC(=O)CCC(=O)O)CC[C@]4(C)[C@H]3CC[C@]12C [Pregnenolone succinate] | anti-virulence effect |  |  |  |  |  |  |
| CN(N=O)C(=O)NC1C(O)[C@H](O)C(CO)O[C@H]1O (stereo partly shown) [Streptozotocin] | anti-virulence effect | reduced P1 promoter activity | reduced growth | exhibited anti-virulence activity | significant anti-virulence effect | inhibit multiple signaling systems | in vivo efficacy, dose dependence ([1]; 5 μg): statistically significant in vivo efficacy; in vivo efficacy, dose dependence ([1]; 10-100 μg): comparable in vivo efficacy; biological half-life [5]: 35-40 min |
| COc1cccc2c1C(=O)c1c(O)c3c(c(O)c1C2=O)C[C@@](O)(C(=O)CO)C[C@@H]3O[C@H]1C[C@H](N)[C@H](O)[C@H](C)O1 [Doxorubicin] | anti-virulence effect | reduced P1 promoter activity | reduced growth | exhibited anti-virulence activity | significant anti-virulence effect |  |  |
| O=c1[nH]c(=O)n([C@H]2C[C@H](O)[C@@H](CO)O2)cc1F [Floxuridine] | anti-virulence effect | reduced P1 promoter activity | reduced growth | exhibited anti-virulence activity | significant anti-virulence effect | inhibit multiple signaling systems | in vivo efficacy, dose dependence ([1]; 10 μg): statistically significant in vivo efficacy; catabolism [5]: rapidly catabolized to 5′fluorouracil |
| O=C1OC2(c3ccccc31)c1cc(I)c(O)c(I)c1Oc1c2cc(I)c(O)c1I [Erythrosine sodium] | anti-virulence effect |  |  |  |  |  |  |
| O=c1[nH]cc(F)c(=O)[nH]1 [5-FU, 5′fluorouracil] |  |  |  |  |  |  | half-life [5]: 8 to 14 min |
